Like-named read-outs stand apart in the source and are kept apart here.
Tests used:
[1] = system: male long tailed mealybugs (P. longispinus); assay: Field bioassay of the pheromone enantiomers and the racemate (delta sticky traps); assay type: in vivo, Pseudococcus longispinus; settings: for attractiveness to male mealybugs (trap catches): traps 6 d + 11 d
Description: FIG. 1 depicts Male long tailed mealybugs caught in traps baited with each of the enantiomers of the pheromone, and the racemate. No mealybugs were caught in solvent treated controls.
(The field trials on vineyards were conducted with the help of Prof. Jocelyn Millar, University of California, Riverside, USA)
A field bioassay of the pheromone was conducted at a nursery in Bonsall, Calif., USA, in a 0.49 ha plot of Ruscus hypoglossum L. (plot coordinates: 33°17′18.36″ N, 117°16′55.61″ W elev 113 m) that was known to be infested with P. longispinus. The plot was divided into seven hoop houses (63 m long×7 m wide), six of which were used in this study. Each house (block) was covered in plastic with open ends. Airflow between houses was not restricted because the plastic cover began 1 m above the plant canopy. Four delta sticky traps were spaced every 12.5 m along a transect within each house, suspended directly above the ruscus canopy. Each trap contained an 11 mm gray rubber septum impregnated with a hexane solution of one of four treatments: solvent control, 5 μg of (S)-(+)-enantiomer, 5 μg of (R)-(−)-enantiomer, 10 μg of the racemate. Treatments were assigned randomly along each transect. Traps were replaced, and treatments were repositioned once after 6 d. Traps remained in place for another 11 d. Trap count data were analyzed by analysis of variance after √(x+0.5) transformation of the data to meet the assumptions of normality and equal variances. Differences among means were tested using Tukey's honestly significant differences (HSD) test. There was no significant interaction between the two sampling periods (date) and the treatments (F=3.23, df=2, 30, and P=0.054). Thus, data for each date were combined for the final analysis. There was both a significant effect of date (F=10.19, df=2, 32, P=0.0032) and treatment (F=130.04, df=2, 32, P<0.0001). Controls were not included in the analysis because their zero values and lack of variance violate the assumptions of ANOVA.

[2] = system: male mealybugs (long-tailed mealybug); settings: 25 μg, field trials, cited from earlier work
[3] = 5 μg enantiomer on rubber septum in delta sticky trap, nursery plot of Ruscus hypoglossum

Structure (SMILES) | attractiveness to male mealybugs (trap catches) ([1]; 10 μg of the racemate on rubber septum in delta sticky trap) | attractiveness to male mealybugs and its duration ([2]; listed as racemic form of the pheromone) | attractiveness to male mealybugs and its duration ([2]; listed as racemic pheromone) | attractiveness to male mealybugs (trap catches) [1, 3] | attractiveness to male mealybugs (trap catches) ([1]; 5 μg enantiomer on rubber septum in delta sticky trap, nursery plot of Ruscus hypoglossum, listed as (+)1) | inhibitory effect of the enantiomer on attraction ([1]; inferred from racemate (10 μg) versus pure enantiomer (5 μg))
CC(=O)OCCC1(C)C=CCC1(C)C (racemic) [racemate (±1), 2-(1,5,5-trimethylcyclopent-2-en-1-yl) ethyl acetate] | as attractive as the pure enantiomer | sufficient to attract mealy bug for three months | highly attractive to male mealybugs for more than three months |  |  | 
CC(=O)OCC[C@@]1(C)C=CCC1(C)C [(S)-(+)-enantiomer, (+) 2-(1,5,5-trimethylcyclopent-2-en-1-yl)ethyl acetate] |  |  |  | highly attractive | more activity than racemic pheromone | 
CC(=O)OCC[C@]1(C)C=CCC1(C)C [(R)-(−)-enantiomer, (−) 2-(1,5,5-trimethylcyclopent-2-en-1-yl)ethyl acetate] |  |  |  | only slightly more attractive than solvent-treated controls |  | not inhibitory
